Measured values reported in patent US9353090B2, “Heterocyclic carboxylic acids as activators of soluble guanylate cyclase” (Boehringer Ingelheim International GmbH, priority 2014, dated 2016).
In brackets after ≈: the same amount, converted by molar mass.

Experiments:
[1] = biological target: human soluble guanylate cyclase alpha 1 and beta 1 subunits (sGC) (Homo sapiens (Human), UniProt Q02108+Q02153); assay: sGC cellular activator assay (cGMP, HTRF), in the presence and absence of 50% human serum; format: cell-based; details: CHO cells stably expressing human sGC alpha 1/beta 1, preincubated with 40 microM ODQ; cGMP by HTRF; Table 2 does not state whether with or without 50% human serum
Chain of human soluble guanylate cyclase alpha 1 and beta 1 subunits (sGC) (Q02108 whole entry partner): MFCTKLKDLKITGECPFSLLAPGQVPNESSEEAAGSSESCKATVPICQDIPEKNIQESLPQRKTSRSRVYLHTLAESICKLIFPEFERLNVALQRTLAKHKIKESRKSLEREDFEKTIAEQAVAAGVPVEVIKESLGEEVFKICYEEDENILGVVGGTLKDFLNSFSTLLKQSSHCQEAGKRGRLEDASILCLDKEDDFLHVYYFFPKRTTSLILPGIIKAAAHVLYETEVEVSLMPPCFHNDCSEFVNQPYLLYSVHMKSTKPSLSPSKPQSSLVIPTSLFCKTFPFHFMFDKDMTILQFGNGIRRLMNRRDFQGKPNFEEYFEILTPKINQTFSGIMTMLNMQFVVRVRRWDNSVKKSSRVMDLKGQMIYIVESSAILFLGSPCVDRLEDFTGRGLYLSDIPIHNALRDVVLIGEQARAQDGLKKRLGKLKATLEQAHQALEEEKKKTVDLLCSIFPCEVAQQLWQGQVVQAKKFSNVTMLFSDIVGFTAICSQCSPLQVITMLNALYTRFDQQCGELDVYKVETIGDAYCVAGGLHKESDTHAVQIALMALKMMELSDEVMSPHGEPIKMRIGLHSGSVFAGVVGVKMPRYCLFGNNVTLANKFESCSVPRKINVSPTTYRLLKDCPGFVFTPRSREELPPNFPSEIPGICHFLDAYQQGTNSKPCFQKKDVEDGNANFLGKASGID
Chain of human soluble guanylate cyclase alpha 1 and beta 1 subunits (sGC) (Q02153 whole entry): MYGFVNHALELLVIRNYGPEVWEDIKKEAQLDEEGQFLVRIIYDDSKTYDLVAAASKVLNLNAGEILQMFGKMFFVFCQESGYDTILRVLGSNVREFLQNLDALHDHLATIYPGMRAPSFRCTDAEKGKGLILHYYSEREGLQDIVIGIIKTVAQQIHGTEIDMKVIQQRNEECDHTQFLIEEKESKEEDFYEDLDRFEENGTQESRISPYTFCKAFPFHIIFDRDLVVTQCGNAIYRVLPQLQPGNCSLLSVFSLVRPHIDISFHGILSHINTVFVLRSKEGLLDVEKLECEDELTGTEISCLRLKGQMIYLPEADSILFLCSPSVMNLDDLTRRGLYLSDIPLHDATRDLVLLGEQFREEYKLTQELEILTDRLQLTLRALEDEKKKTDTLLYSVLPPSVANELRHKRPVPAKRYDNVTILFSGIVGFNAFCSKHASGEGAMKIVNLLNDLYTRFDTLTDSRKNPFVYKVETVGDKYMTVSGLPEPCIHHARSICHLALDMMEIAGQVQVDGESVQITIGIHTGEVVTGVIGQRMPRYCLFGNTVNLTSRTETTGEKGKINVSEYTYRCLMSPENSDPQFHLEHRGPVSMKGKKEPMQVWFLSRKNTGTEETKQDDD
Method in brief: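 First, CHO-sGC (human α1β1) cells get 1 h ODQ at 40 microM with IBMX and 0.1% BSA. Finally, cGMP is quantified by HTRF and EC50 computed.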

[2] = Human liver microsome (HLM) metabolic stability assay; format: in vitro ADME; details: human liver microsomes
Method in brief: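 Remaining parent measured by LC/MS/MS (ESI, MRM) at 5, 15, 30 and 60 min relative to 0 min. Incubation: 1 uM compound, HLMs, NADPH-started, 37° C., 60 min total, single replicate. Slope of ln(% remaining) gives t1/2 = 0.693/slope, then CLint, CLh and % Qh.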

physchem = details: kinetic from dmso stock
[3] = pH 2.2, aqueous buffer, Solubility (pH 2.2)
[4] = pH 4.5, aqueous buffer, Solubility (pH 4.5)
[5] = pH 6.8, aqueous buffer, Solubility (pH 6.8)

| Structure (SMILES) | EC50 [1] [µM] | Metabolic stability (Qh %), % hepatic blood flow [2] [%] | solubility at 24 h (physchem; [3]) [mg/mL] | solubility at 24 h (physchem; [4]) [mg/mL] | solubility at 24 h (physchem; [5]) [mg/mL] |
| --- | --- | --- | --- | --- | --- |
| Cc1ccc(OCc2ccc3c(c2)CCCN(C2CCOCC2)C3)c(-c2csc(N3CC[C@@]4(C(=O)O)C[C@H]4C3)n2)c1 [Compound 199] | 0.145 | 46 | 0.134 (≈ 234 µM) | 0.0516 (≈ 89.9 µM) | 0.0238 (≈ 41.5 µM) |
| COc1ccc(OCc2ccc3c(c2C)CCN(C2CCOCC2)C3)c(-c2csc(N3CC[C@@]4(C(=O)O)C[C@H]4C3)n2)c1 [Compound 200] | 0.025 | <24 | 0.13 (≈ 221 µM) | 0.0436 (≈ 73.9 µM) | 0.0105 (≈ 17.8 µM) |
| COc1ccc(OCc2ccc3c(c2C)CCN(C2COC2)C3)c(-c2csc(N3CC[C@@]4(C(=O)O)C[C@H]4C3)n2)c1 [Compound 201] | 0.04 | <24 | 0.132 (≈ 235 µM) | 0.0101 (≈ 18 µM) | 0.0195 (≈ 34.7 µM) |
| Cc1ccc(OCc2ccc3c(c2C)CCN(C2CCOCC2)C3=O)c(-c2cccc(N3CC[C@@]4(C(=O)O)C[C@H]4C3)n2)c1 [Compound 202] | 0.009 | 62 | 0.084 (≈ 144 µM) | 0.01 (≈ 17.2 µM) | 0.0001 (≈ 0.172 µM) |
| CO[C@H]1CN(c2nc(-c3cc(C)ccc3OCc3ccc4c(c3C)CCN(C3CCOCC3)C4=O)cs2)CC[C@H]1C(=O)O [Compound 203] | 0.033 | <24 | 0.0568 (≈ 93.8 µM) | 0.0001 (≈ 0.165 µM) | 0.0016 (≈ 2.64 µM) |
| CO[C@H]1CN(c2cccc(-c3cc(C)ccc3OCc3ccc4c(c3C)CCN(C3CCOCC3)C4=O)n2)CC[C@H]1C(=O)O [Compound 205] | 0.052 | <24 | 0.109 (≈ 182 µM) | 0.0426 (≈ 71 µM) | 0.0108 (≈ 18 µM) |
| CO[C@H]1CN(c2nc(-c3cccc(Cl)c3OCc3ccc4c(c3C)CCN(C3CCOCC3)C4)cs2)CC[C@H]1C(=O)O [Compound 207] | 0.008 | <24 | 0.143 (≈ 234 µM) | 0.0886 (≈ 145 µM) | 0.0768 (≈ 125 µM) |
| CO[C@@H]1CN(c2nc(-c3cccc(Cl)c3OCc3ccc4c(c3C)CCN(C3CCOCC3)C4)cs2)CC[C@@H]1C(=O)O [Compound 208] | 0.016 | <24 | 0.139 (≈ 228 µM) | 0.0889 (≈ 145 µM) | 0.0771 (≈ 126 µM) |
| COc1cc(COc2c(C)cccc2-c2csc(N3CC[C@@H](C(=O)O)[C@@H](OC)C3)n2)cc2c1CN(C1COC1)CC2 [Compound 209] | 0.014 | <24 | 0.128 (≈ 220 µM) | 0.0839 (≈ 145 µM) | 0.0887 (≈ 153 µM) |
| COc1cc(COc2c(C)cccc2-c2csc(N3CC[C@@H](C(=O)O)[C@@H](OC)C3)n2)cc2c1CN([C@@H]1CCOC1)CC2 [Compound 210] | 0.016 | <24 | 0.136 (≈ 230 µM) | 0.0882 (≈ 149 µM) | 0.075 (≈ 126 µM) |
| COc1cc(COc2c(C)cccc2-c2csc(N3CC[C@@H](C(=O)O)[C@@H](OC)C3)n2)cc2c1CN([C@H]1CCOC1)CC2 [Compound 211] | 0.018 | <24 | 0.133 (≈ 224 µM) | 0.0834 (≈ 140 µM) | 0.0765 (≈ 129 µM) |
| COC[C@H]1N(c2cccc(-c3cccc(F)c3OCc3ccc4c(c3C)CCN(C3CCOCC3)CC4)n2)C[C@@H]2C[C@@]21C(=O)O [Compound 212] | 0.034 | <24 | 0.136 (≈ 221 µM) | 0.0966 (≈ 157 µM) | 0.0727 (≈ 118 µM) |
| COC[C@H]1N(c2cccc(-c3cccc(F)c3OCc3cc(C)c4c(c3)CCN(C3CCOCC3)C4)n2)C[C@@H]2C[C@@]21C(=O)O [Compound 213] | 0.134 | <24 | 0.144 (≈ 239 µM) | 0.109 (≈ 181 µM) | 0.0813 (≈ 135 µM) |
| Cc1cccc(-c2cccc(N3CC4OCC3C4C(=O)O)n2)c1OCc1ccc2c(c1C)CCN(C1CCOCC1)C2 (centres unmarked) [Compound 214] | 0.243 | <24 | 0.118 (≈ 207 µM) | 0.107 (≈ 189 µM) | 0.0879 (≈ 154 µM) |
| COC[C@H]1N(c2cccc(-c3cccc(C)c3OCc3cc(C)c4c(c3C)CCN(C3CCOCC3)C4)n2)C[C@@H]2C[C@@]21C(=O)O [Compound 215] | 0.01 | <24 | 0.143 (≈ 233 µM) | 0.135 (≈ 221 µM) | 0.129 (≈ 211 µM) |
| COC[C@H]1N(c2cccc(-c3cccc(C)c3OCc3cc(F)c4c(c3)CCN(C3CCOCC3)C4)n2)C[C@@H]2C[C@@]21C(=O)O [Compound 216] | 0.014 | 39 | 0.144 (≈ 240 µM) | 0.139 (≈ 231 µM) | 0.134 (≈ 223 µM) |
| COC[C@H]1N(c2cccc(-c3cccc(C)c3OCc3cc(C#N)c4c(c3)CCN(C3CCOCC3)C4)n2)C[C@@H]2C[C@@]21C(=O)O [Compound 217] | 0.04 | 44 | 0.167 (≈ 274 µM) | 0.162 (≈ 266 µM) | 0.158 (≈ 259 µM) |
| COC[C@H]1N(c2cccc(-c3cc(C)ccc3OCc3ccc4c(c3C)CCN(C3CCOCC3)C4)n2)C[C@@H]2C[C@@]21C(=O)O [Compound 218] | 0.081 | <24 | 0.144 (≈ 241 µM) | 0.139 (≈ 233 µM) | 0.134 (≈ 224 µM) |
| COC[C@H]1N(c2cccc(-c3cc(C)ccc3OCc3cc(C)c4c(c3)CCN(C3CCOCC3)C4)n2)C[C@@H]2C[C@@]21C(=O)O [Compound 219] | 0.263 | <24 | 0.146 (≈ 245 µM) | 0.142 (≈ 238 µM) | 0.137 (≈ 229 µM) |
| COC[C@H]1N(c2cccc(-c3cccc(C(F)(F)F)c3OCc3cc(C)c4c(c3)CCN(C3CCOCC3)C4)n2)C[C@@H]2C[C@@]21C(=O)O [Compound 220] | 0.009 | 34 | 0.167 (≈ 256 µM) | 0.136 (≈ 209 µM) | 0.133 (≈ 203 µM) |
| COC[C@H]1N(c2cccc(-c3cccc(Cl)c3OCc3cc(C)c4c(c3)CCN(C3CCOCC3)C4)n2)C[C@@H]2C[C@@]21C(=O)O [Compound 221] | 0.012 | <24 | 0.155 (≈ 251 µM) | 0.144 (≈ 233 µM) | 0.132 (≈ 213 µM) |
| COC[C@H]1N(c2cccc(-c3cccc(C)c3OCc3cc(C)c4c(c3)CN(C3CCOCC3)C4)n2)C[C@@H]2C[C@@]21C(=O)O [Compound 222] | 0.023 | <24 | 0.132 (≈ 227 µM) | 0.13 (≈ 222 µM) | 0.119 (≈ 203 µM) |
| COC[C@H]1N(c2cccc(-c3cccc(C)c3OCc3ccc4c(c3C)CN(C3CCOCC3)C4)n2)C[C@@H]2C[C@@]21C(=O)O [Compound 223] | 0.023 | <24 | 0.145 (≈ 248 µM) | 0.14 (≈ 239 µM) | 0.132 (≈ 226 µM) |
| COC[C@H]1N(c2cccc(-c3cccc(C)c3OCc3ccc4c(c3)CN(C3CCOCC3)CC4)n2)C[C@@H]2C[C@@]21C(=O)O [Compound 224] | 0.051 | 31 | 0.15 (≈ 257 µM) | 0.145 (≈ 249 µM) | 0.136 (≈ 233 µM) |
| COC[C@H]1N(c2cccc(-c3cccc(C)c3OCc3ccc4c(c3)[C@@H](C)CN(C3CCOCC3)CC4)n2)C[C@@H]2C[C@@]21C(=O)O [Compound 225] | 0.005 | 25 | 0.136 (≈ 222 µM) | 0.135 (≈ 220 µM) | 0.129 (≈ 211 µM) |
